# Where two headings read alike, the source gives them in different places. Marks after values point to notes of the source that are not given here.
# Legend:
# FAAH [1] = conditions: from Ramarao et al. (AAMCA), De Bank et al. (oleamide); cited from earlier work
# FAAH [2] = assay: FAAH kinetic data of literature substrates; format: biochemical; conditions: Vmax/Km of substrate over that of oleamide (5.5 × 10^−2)
# [3] = cited from earlier work; for ØF, fluorescence quantum yield: in water, literature value
# [4] = Maximal excitation and emission wavelengths; format: physicochemical; conditions: 50 μM in 0.1 M phosphate buffer, 30° C.; SD ±2 nm
# Experimental: Maximal excitation and emission wavelengths. A stock solution in ethanol of each compound (10 μl, 5 mM) was added to 990 μl of sodium phosphate buffer (0.1 M, pH 8.0, final substrate concentration 50 μM) in a 1-cm quartz cuvette. The quartz cuvette was scanned from 200 to 500 nm for absorption spectra with a Spectra Max M2 spectrophotometer. Maximal excitation and emission wavelengths were obtained from scanning from 250 to 600 nm and 360 to 600 nm by a 2 nm interval at 30° C., respectively.
# [5] = 3-aminopyridine in water, from Weisstuch et al.; cited from earlier work
# [6] = Molar extinction coefficient of fluorescent reporters; format: physicochemical; conditions: H2O containing 1% ethanol, 290 nm, 30° C., 10-50 μM
# Experimental: Molar extinction coefficient. According to Beer's law, Aλ=ε*C*L, where Aλ is the absorbance at wavelength (λ nm); ε is called the molar extinction coefficient; L is the width of the sample cuvette; and C is the concentration of the solute. In this example, a series of concentrations falling between 10 and 50 μM (final concentration) for each fluorescent reporter was used for determination of the molar extinction coefficient. Assays were performed in a quartz cuvette (1 cm optical passage). 10 μl of a stock solution of a reporter in ethanol (1, 2, 3, 4, or 5 mM) was added to 990 μl H2O. The resulting mixture was degassed by sonication with ultrasonic cleaner Model 750 (VWR International; Wester, Pa.) for 10 seconds at a power level of 9. Measurements were performed with a Spectra Max M2 spectrophotometer (Molecular Devices; Sunnyvale, Calif.) at a wavelength of 290 nm. A slope (or extinction coefficient) was obtained by using an average absorbance of triplicate samples.
# amidases, human liver S9 = assay: Specific activity, human liver S9; format: biochemical; conditions: pH 8.0, 37° C.; NM = not measurable at the same protein concentration as other substrates
# Experimental: Comparison of the lowest detection limits of protein concentration of FAAH toward colorimetric and fluorescent substrates. In general, all assays were performed in 96-well styrene flat-bottom microtiter plates with a Spectra Max M2 spectrophotometer at 37° C. for […]. The total volume of each well was 201 μl consisting of 0.1 M sodium phosphate buffer (pH 8.0) (190 μl) containing 1% glycerol and 0.1% Triton-X 100, stock or diluted protein solution (10 μl), and the substrate solution (1 μl) in ethanol (final concentration 200 μM for 10, 11, 13 or 14) or in DMSO (final concentration 25 μM for 12, 15, or 16; 50 μM for 17). The lowest detection limits of microsomal fatty acid amide hydrolase (FAAH) by substrates were determined by the fact that the signal at 10 min after kinetic measurements are equal to or over three times the noise or basal line at 0 min. Colorimetric substrate (16) assays were performed in clear 96-well microtititer plates using an absorbance wavelength at 382 nm. The fluorescent substrates containing 5-amino-2-methoxypyridine (e.g., 10, 13) were measured at an excitation wavelength (302 nm), emission wavelength (396 nm), and auto cutoff wavelength (325 nm). […]
# [7] = system: amidases, human liver microsomes; assay: Specific activity, human liver microsomes; format: biochemical; conditions: for Specific activity, Human liver microsomes: pH 8.0, 37° C., NM = not measurable at the same protein concentration as other substrates
# Experimental: (§1) Comparison of the lowest detection limits of protein concentration of FAAH toward colorimetric and fluorescent substrates. In general, all assays were performed in 96-well styrene flat-bottom microtiter plates with a Spectra Max M2 spectrophotometer at 37° C. for […]. The total volume of each well was 201 μl consisting of 0.1 M sodium phosphate buffer (pH 8.0) (190 μl) containing 1% glycerol and 0.1% Triton-X 100, stock or diluted protein solution (10 μl), and the substrate solution (1 μl) in ethanol (final concentration 200 μM for 10, 11, 13 or 14) or in DMSO (final concentration 25 μM for 12, 15, or 16; 50 μM for 17). The lowest detection limits of microsomal fatty acid amide hydrolase (FAAH) by substrates were determined by the fact that the signal at 10 min after kinetic measurements are equal to or over three times the noise or basal line at 0 min. Colorimetric substrate (16) assays were performed in clear 96-well microtititer plates using an absorbance wavelength at 382 nm. The fluorescent substrates containing 5-amino-2-methoxypyridine (e.g., 10, 13) were measured at an excitation wavelength (302 nm), emission wavelength (396 nm), and auto cutoff wavelength (325 nm). Similarly, the fluorescent substrates containing 5-amino-2-methoxy-6-methylpyridine (e.g., 11, 14, and 17) were measured at an excitation wavelength (304 nm), emission wavelength (392 nm), and an auto cutoff wavelength of 325 nm. In addition, an excitation wavelength (366 nm), emission wavelength (496 nm), and auto cutoff wavelength (495 nm) were used for the substrates (e.g., 12 and 15) containing 7-amino-4-trifluoromethyl coumarin.
# Specific activity determination. The assays for specific activities were performed as described above for the sensitivity assay. The specific activity presented is based on the following: 1) the signal after a 10 min enzymatic reaction was at least 3 fold the baseline signal at 0 min, and 2) the amount of hydrolyzed substrate during a 10 min period was less than 10% of the total amount of the substrate added. To correct for protein-induced fluorescence quenching, a standard curve of 5-amino-2-methoxypyridine (6) or 5-amino-2-methoxy-6-methylpyridine (8) was constructed in the presence of the same protein concentration used for the assay of that enzyme.
# [8] = Comparison of aqueous solubility of substrates (absorbance at 800 nm); format: physicochemical; conditions: 0.1 M phosphate buffer (pH 8.0), 1% ethanol, 37° C.
# Experimental: Comparison of aqueous solubility of substrates. The aqueous solubility of the aminopyridine derivatives (e.g., 13, 14) and the 7-aminocoumarin derivative (e.g., 15) was determined in clear 96-well styrene flat-bottom microtiter plates with a Spectra Max M2 spectrophotometer. Different concentrations of the substrates (13, 14 and 15; final concentration: 0.39, 0.78, 1.56, 3.13, 6.25, 12.5, 25, 50, 100, or 200 μM) in 200 μl 0.1 M sodium phosphate buffer (1% ethanol; pH 8.0) were used and the absorbance was recorded at a wavelength of 800 nm at 37° C. The measurements were performed in three replicates for each concentration.
# [9] = system: amidases, microsomes from High Five cells; assay: Specific activity, microsomes from High Five cells; conditions: pH 8.0, 37° C.; NM = not measurable at the same protein concentration as other substrates
# Experimental: Preparation of recombinant human FAAH. Transgenic expression of the human FAAH in a baculovirus system was performed by following the method described in Nishi et al., Arch. […] The cDNA encoding human FAAH (GenBank Accession No. NM—001441) was amplified by PCR using a human liver cDNA library (Invitrogen; Carlsbad, Calif.) as a template. The primer pair was 5′-[sequence]-3′ and 5′-[sequence]-3′. BglII and EcoRI endonuclease sites (underlined) were incorporated just upstream of the start codon and downstream of the stop codon of the coding sequence of FAAH, respectively. The PCR products were cloned into a pCR2.1 vector (Invitrogen) and the nucleotide sequence was verified by DNA sequencing. The cDNA fragments were then excised and directionally ligated to the BglII and EcoRI sites of the baculovirus transfer vector pAcUW21 (Lopez-Ferber et al., Baculovirus transfer vectors, in “Baculovirus Expression Protocols,” Richardson (Ed.), pp 25-63, Humana Press, Totowa, N.J., 1995). Recombinant baculoviruses harboring the human FAAH gene, Ac-hFAAH, were generated by co-transfection of Spodoptera frugiperda-derived Sf21 cells with the recombinant transfer vector plasmid and Bsu36I-cleaved BacPAK6 viral DNA (Clontech Laboratories; Mountain View, Calif.) as described in O'Reilly et al., Baculovirus Expression Vectors: A Laboratory Manual, Oxford University Press, New York, 1992. Trichoplusia ni-derived High Five cells (1×10^6 cells/ml) were inoculated with a high titer of Ac-hFAAH. At 72 hours post-infection, the infected cells were harvested by centrifugation at 2,000×g for 20 min at 4° C. and suspended in 50 mM Tris-HCl (pH 8.0) containing 150 mM NaCl, 1 mM EDTA, 1 μM pepstatin, 100 μM leupeptin, and 0.1 mg/ml aprotinin. The cell suspension was then homogenized using a Polytron homogenizer and centrifuged at 10,000×g for 20 min at 4° C. […]
# Comparison of the lowest detection limits of protein concentration of FAAH toward colorimetric and fluorescent substrates. […] The lowest detection limits of microsomal fatty acid amide hydrolase (FAAH) by substrates were determined by the fact that the signal at 10 min after kinetic measurements are equal to or over three times the noise or basal line at 0 min. Colorimetric substrate (16) assays were performed in clear 96-well microtititer plates using an absorbance wavelength at 382 nm. The fluorescent substrates containing 5-amino-2-methoxypyridine (e.g., 10, 13) were measured at an excitation wavelength (302 nm), emission wavelength (396 nm), and auto cutoff wavelength (325 nm). Similarly, the fluorescent substrates containing 5-amino-2-methoxy-6-methylpyridine (e.g., 11, 14, and 17) were measured at an excitation wavelength (304 nm), emission wavelength (392 nm), and an auto cutoff wavelength of 325 nm. […]
# [10] = target: T1, microsomal fatty acid amide hydrolase (FAAH) (Homo sapiens, UniProt O00519); assay: Lowest detection limits of microsomal FAAH toward colorimetric and fluorescent substrates; format: biochemical
# T1 construct: made in house; host or cells: Trichoplusia ni High Five cells infected with recombinant baculovirus Ac-hFAAH; microsomal fraction
# T1 sequence (O00519 1-579): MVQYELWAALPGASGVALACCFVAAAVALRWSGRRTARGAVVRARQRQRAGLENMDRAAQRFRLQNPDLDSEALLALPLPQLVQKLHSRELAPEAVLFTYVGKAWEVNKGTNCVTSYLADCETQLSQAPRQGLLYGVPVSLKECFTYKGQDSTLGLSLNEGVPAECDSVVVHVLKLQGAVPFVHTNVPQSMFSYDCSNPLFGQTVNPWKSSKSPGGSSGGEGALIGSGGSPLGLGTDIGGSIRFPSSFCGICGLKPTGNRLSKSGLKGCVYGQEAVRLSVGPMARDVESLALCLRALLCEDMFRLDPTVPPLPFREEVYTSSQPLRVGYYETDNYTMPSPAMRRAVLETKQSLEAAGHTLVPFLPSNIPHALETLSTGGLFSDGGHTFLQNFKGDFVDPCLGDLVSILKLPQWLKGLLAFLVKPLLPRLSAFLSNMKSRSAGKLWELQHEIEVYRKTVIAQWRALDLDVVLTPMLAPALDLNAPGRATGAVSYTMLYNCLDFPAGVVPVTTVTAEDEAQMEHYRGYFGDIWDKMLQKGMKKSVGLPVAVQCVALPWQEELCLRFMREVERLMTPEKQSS
# Experimental: (§2) Preparation of recombinant human FAAH. Transgenic expression of the human FAAH in a baculovirus system was performed by following the method described in Nishi et al., Arch. Biochem. Biophys., 445:115-123 (2006). The cDNA encoding human FAAH (GenBank Accession No. NM_001441) was amplified by PCR using a human liver cDNA library (Invitrogen; Carlsbad, Calif.) as a template. The primer pair was 5′-[…]-3′ and 5′-[…]-3′. BglII and EcoRI endonuclease sites (underlined) were incorporated just upstream of the start codon and downstream of the stop codon of the coding sequence of FAAH, respectively. The PCR products were cloned into a pCR2.1 vector (Invitrogen) and the nucleotide sequence was verified by DNA sequencing. The cDNA fragments were then excised and directionally ligated to the BglII and EcoRI sites of the baculovirus transfer vector pAcUW21 (Lopez-Ferber et al., Baculovirus transfer vectors, in “Baculovirus Expression Protocols,” Richardson (Ed.), pp 25-63, Humana Press, Totowa, N.J., 1995). Recombinant baculoviruses harboring the human FAAH gene, Ac-hFAAH, were generated by co-transfection of Spodoptera frugiperda-derived Sf21 cells with the recombinant transfer vector plasmid and Bsu36I-cleaved BacPAK6 viral DNA (Clontech Laboratories; Mountain View, Calif.) as described in O'Reilly et al., Baculovirus Expression Vectors: A Laboratory Manual, Oxford University Press, New York, 1992. Trichoplusia ni-derived High Five cells (1×10^6 cells/ml) were inoculated with a high titer of Ac-hFAAH. At 72 hours post-infection, the infected cells were harvested by centrifugation at 2,000×g for 20 min at 4° C. and suspended in 50 mM Tris-HCl (pH 8.0) containing 150 mM NaCl, 1 mM EDTA, 1 μM pepstatin, 100 μM leupeptin, and 0.1 mg/ml aprotinin. The cell suspension was then homogenized using a Polytron homogenizer and centrifuged at 10,000×g for 20 min at 4° C. The microsomal fraction was collected by ultracentrifugation of the supernatant at 100,000×g for 60 min at 4° C. The pellet was resuspended in 20 mM Tris-HCl (pH 8.0) containing 10% (w/v) glycerol and 1% (w/v) Triton-X 100 and stored at −80° C. until use.
# as §1
# [11] = target: T2, human FAAH, microsomes from FAAH cells (Homo sapiens, UniProt O00519); assay: Specific activity, microsomes from FAAH cells; format: biochemical
# T2 construct: made in house; host or cells: Trichoplusia ni High Five cells infected with recombinant baculovirus Ac-hFAAH; microsomal fraction
# T2 sequence (O00519 1-579): T1 sequence (O00519 1-579)
# Experimental: as §2, §1
# Specific activity determination. The assays for specific activities were performed as described above for the sensitivity assay. […]
compound,measurement,setting,value
"CCCCCC=CCC=CCC=CCC=CCCCC(=O)Nc1ccc2c(C)cc(=O)oc2c1 [AAMCA, arachidonyl 7-amino-4-methylcoumarin amide]",Km,FAAH [1],0.48 µM
same,Vmax,FAAH [1],0.058 nmol/min/mg
same,Selectivity ratio,FAAH [2],2.2
"CCCCCCCC/C=C\CCCCCCCC(N)=O [Oleamide, oleamide]",Km,FAAH [1],104 µM
same,Vmax,FAAH [1],5.7 nmol/min/mg
same,Selectivity ratio,FAAH [2],1.0
"Nc1cccnc1 [Compound 1, 3-aminopyridine]",quantum yield,"[3]; in 0.1 NH2SO4, Rusakowicz et al.",1.07
same,quantum yield,"[3]; in 1 N NaOH, Rusakowicz et al.",0.03
same,"ØF, fluorescence quantum yield",[3],0.32^d
same,"ØF, fluorescence quantum yield",[3]; listed as 3-aminopyridine,0.32
same,"Em, maximal emission wavelength",[4],378 nm
same,"Ex, maximal excitation wavelength",[4],286 nm
same,"εmax, molar extinction coefficient",[5],2800 M⁻¹ cm⁻¹
same,"εmax, molar extinction coefficient",[6],2890 M⁻¹ cm⁻¹
"CC(=O)Nc1ccc2c(C(F)(F)F)cc(=O)oc2c1 [Compound 12, N-(4-(trifluoromethyl)-2-oxo-2H-chromen-7-yl) acetamide]","Specific activity, Human liver S9","amidases, human liver S9",0.18 ± 0.02 nmol/min/mg protein
same,"Specific activity, Human liver microsomes",[7],0.66 ± 0.06 nmol/min/mg protein
same,melting point,,109.3 to 111.4 °C
"CCCCCCCC(=O)Nc1ccc(OC)nc1C [Compound 14, N-(6-methoxy-2-methylpyridin-3-yl) octanamide]",aqueous solubility compared with coumarin substrate (15),[8],much higher solubility
same,"Specific activity, Human liver S9","amidases, human liver S9",0.42 ± 0.01 nmol/min/mg protein
same,"Specific activity, Microsomes from High Five cells",[9],591 ± 18.4 pmol/min/mg protein
same,"base line, Average","[10]; 0 min, protein 0.11 (13), 0.67 (14), 100 (15), 0.5 (17) μg/well, 200 μM (13),(14), 25 μM (15), 50 μM (17)",194 RFU
same,"signal, Average","[10]; 10 min, protein 0.11 (13), 0.67 (14), 100 (15), 0.5 (17) μg/well, 200 μM (13),(14), 25 μM (15), 50 μM (17)",728* RFU
same,"Protein, lowest detection limit of microsomal FAAH (signal at 10 min ≥ three times base line)","[10]; pH 8.0, 37° C., 200 μM (13), (14), 50 μM (17)",0.67 μg/200 μ′
same,lowest detection limit of protein,[10]; signal at 10 min equal to three times base line,3.3 μg protein/ml
same,preference of human liver microsomes for substrate (14) over (13),[7]; Table 4,at least 15 times
same,"Specific activity, Human liver microsomes",[7],6.90 ± 0.25 nmol/min/mg protein
same,melting point,,67.4 to 68.2 °C
same,"enhancement of activity, microsomes from FAAH-expressing cells compared with High Five cells",[11],31 times
same,"Specific activity, Microsomes from FAAH cells","[11]; pH 8.0, 37° C., NM = not measurable at the same protein concentration as other substrates",19.0 ± 0.5 nmol/min/mg protein

# Source: US20100160391A1, “Substituted Aminopyridines as Fluorescent Reporters for Amide Hydrolases” (priority 2006, published 2010)
